Our source for the Kd and Kb values is PMC10146846, “Studying the Mechanism of Interaction of Doxofylline with Human Lysozyme: A Biophysical and In Silico Approach” (Molecules, 2023).

The target in test [1] is T1, Human lysozyme (Homo sapiens, UniProt P61626).
T1 construct: gene LYZ
T1 sequence (P61626 19-148): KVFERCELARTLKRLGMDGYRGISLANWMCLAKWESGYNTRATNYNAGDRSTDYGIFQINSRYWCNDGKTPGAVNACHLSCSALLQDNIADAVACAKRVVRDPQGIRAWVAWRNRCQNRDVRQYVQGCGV
Briefly: UV-vis absorption titration, double-reciprocal plot. It counts as binding. From the text:
UV-vis absorption titration, double-reciprocal plot on Human lysozyme

Test [2] concerns the target T1, Human lysozyme. The test can be described thus: intrinsic fluorescence quenching, excitation […] nm. Particulars: double-log; sodium phosphate pH 7.4, lysozyme 10 µM, doxofylline 0–60 µM. It counts as binding.

The Kd is a measure of binding affinity in units of concentration. High values mean weaker binding, low ones tighter binding.

At Human lysozyme [1], `Cn1c(=O)c2c(ncn2CC2OCCO2)n(C)c1=O` [doxofylline] came in with a Kd of 5.18 µM. The Kb on Human lysozyme [2] worked out at 22900 M⁻¹.
